{"source": "patent US20160346249A1", "about": "(priority 2012, published 2016)", "test": "Single rising oral dose (10-150 mg IR) safety, tolerance and pharmacokinetics in healthy male volunteers", "type": "in vivo, human", "conditions": "human, plasma, oral; for MRT inf: read-out: MRT0-∞; for AUC(0-t): read-out: AUC0-t", "source_text": "Fifty (50) healthy male adult volunteers, between the ages of 19 and 43 years (mean±SD: 28±6 years) were enrolled in the study and randomized to the […] different treatments. […] The subjects were divided into panels of 10 subjects/dose group. Seven subjects in each group received the test drug, while three received an identical-looking placebo. […] The five treatments are outlined below:\nThe subjects were admitted to the clinic the night before dose administration and fasted from approximately 10 hour before to 4 hour after ingestion of the study capsules. Treatments were administered with 240 mL of mineral water between 08:00 and 09:00 hours. […] The assay calibration range was 5 to 2,000 ng/mL.\nThe values of Cmax and Tmax were the observed value for each subject. The terminal elimination rate constant λz was derived from the log-linear disposition phase of the concentration-time curve using linear least-squares regression for which the program determined the appropriate number of terminal points to calculate λz. At least three terminal plasma concentrations were used for estimating λz. The t1/2 (HL_Lambda_z) was calculated as ln 2/λz. AUC0-t and AUMC0-t were determined using the linear trapezoidal rule for each increasing concentration and the log-trapezoidal rule for descending concentrations. The AUC values from the last quantifiable time point to infinity was calculated as Ct/λz. This value was added to AUC0-t to obtain AUC0-∞. […] Oral clearance was calculated as Dose/AUC0-∞. The 90% confidence intervals were calculated for all of the variables.\nSAS, version 8.2, was used for the analysis.", "note": "Like-named read-outs stand apart in the source and are kept apart here.", "data": [{"compound": "Clc1ccc([C@]23CNC[C@H]2C3)cc1Cl", "note": "[amitifadine, (+)-1-(3,4-dichlorophenyl)-3-azabicyclo[3.1.0]hexane]", "values": [{"measurement": "half-life", "setting": "10 mg, individual subject, read-out: t1/2 (converted)", "value": 3.47, "unit": "h"}, {"measurement": "MRT inf", "setting": "25 mg, individual subject", "value": 4.81, "unit": "h"}, {"measurement": "AUC(0-inf)", "setting": "50 mg, individual subject", "value": 1690, "unit": "ng·h/mL"}, {"measurement": "MRT inf", "setting": "50 mg, individual subject", "value": 5.18, "unit": "h"}, {"measurement": "half-life", "setting": "50 mg, individual subject, read-out: t1/2 (converted)", "value": 3.25, "unit": "h"}, {"measurement": "AUC(0-inf)", "setting": "100 mg, individual subject", "value": 5010, "unit": "ng·h/mL"}, {"measurement": "AUC(0-t)", "setting": "100 mg, individual subject", "value": 4960, "unit": "ng·h/mL"}, {"measurement": "MRT inf", "setting": "100 mg, individual subject", "value": 4.92, "unit": "h"}, {"measurement": "half-life", "setting": "100 mg, individual subject, read-out: t1/2 (converted)", "value": 3.94, "unit": "h"}, {"measurement": "AUC(0-inf)", "setting": "150 mg, individual subject", "value": 7300, "unit": "ng·h/mL"}, {"measurement": "AUC(0-t)", "setting": "150 mg, individual subject", "value": 7210, "unit": "ng·h/mL"}, {"measurement": "MRT inf", "setting": "150 mg, individual subject", "value": 5.67, "unit": "h"}, {"measurement": "AUC(0-inf)", "setting": "male, 10 mg, Geometric Mean", "value": 418, "unit": "ng·h/mL"}, {"measurement": "AUC(0-t)", "setting": "male, 10 mg, Geometric Mean", "value": 377, "unit": "ng·h/mL"}, {"measurement": "MRT inf", "setting": "male, 10 mg, Geometric Mean", "value": 5.21, "unit": "h"}, {"measurement": "Tmax", "setting": "male, 10 mg, Geometric Mean, read-out: Tmax", "value": 0.696, "unit": "h"}, {"measurement": "half-life", "setting": "male, 10 mg, Geometric Mean, read-out: t1/2 (converted)", "value": 3.4, "unit": "h"}, {"measurement": "AUC(0-inf)", "setting": "male, 10 mg, Mean (n = 7)", "value": 429, "unit": "ng·h/mL"}, {"measurement": "AUC(0-t)", "setting": "male, 10 mg, Mean (n = 7)", "value": 387, "unit": "ng·h/mL"}, {"measurement": "MRT inf", "setting": "male, 10 mg, Mean (n = 7)", "value": 5.23, "unit": "h"}, {"measurement": "half-life", "setting": "male, 10 mg, Mean (n = 7), read-out: t1/2 (converted)", "value": 3.42, "unit": "h"}, {"measurement": "AUC(0-inf)", "setting": "male, 10 mg, Median", "value": 454, "unit": "ng·h/mL"}, {"measurement": "AUC(0-t)", "setting": "male, 10 mg, Median", "value": 409, "unit": "ng·h/mL"}, {"measurement": "MRT inf", "setting": "male, 10 mg, Median", "value": 5.35, "unit": "h"}, {"measurement": "half-life", "setting": "male, 10 mg, Median, read-out: t1/2 (converted)", "value": 3.47, "unit": "h"}, {"measurement": "AUC(0-inf)", "setting": "male, 25 mg, Geometric Mean", "value": 1430, "unit": "ng·h/mL"}, {"measurement": "AUC(0-t)", "setting": "male, 25 mg, Geometric Mean", "value": 1340, "unit": "ng·h/mL"}, {"measurement": "MRT inf", "setting": "male, 25 mg, Geometric Mean", "value": 4.79, "unit": "h"}, {"measurement": "Tmax", "setting": "male, 25 mg, Geometric Mean, read-out: Tmax", "value": 0.863, "unit": "h"}, {"measurement": "half-life", "setting": "male, 25 mg, Geometric Mean, read-out: t1/2 (converted)", "value": 2.97, "unit": "h"}, {"measurement": "AUC(0-inf)", "setting": "male, 25 mg, Mean (n = 7)", "value": 1470, "unit": "ng·h/mL"}, {"measurement": "AUC(0-t)", "setting": "male, 25 mg, Mean (n = 7)", "value": 1390, "unit": "ng·h/mL"}, {"measurement": "MRT inf", "setting": "male, 25 mg, Mean (n = 7)", "value": 4.83, "unit": "h"}, {"measurement": "half-life", "setting": "male, 25 mg, Mean (n = 7), read-out: t1/2 (converted)", "value": 3.15, "unit": "h"}, {"measurement": "AUC(0-inf)", "setting": "male, 25 mg, Median", "value": 1300, "unit": "ng·h/mL"}, {"measurement": "AUC(0-t)", "setting": "male, 25 mg, Median", "value": 1190, "unit": "ng·h/mL"}, {"measurement": "MRT inf", "setting": "male, 25 mg, Median", "value": 4.65, "unit": "h"}, {"measurement": "half-life", "setting": "male, 25 mg, Median, read-out: t1/2 (converted)", "value": 3, "unit": "h"}, {"measurement": "AUC(0-inf)", "setting": "male, 50 mg, Geometric Mean", "value": 2420, "unit": "ng·h/mL"}, {"measurement": "AUC(0-t)", "setting": "male, 50 mg, Geometric Mean", "value": 2320, "unit": "ng·h/mL"}, {"measurement": "MRT inf", "setting": "male, 50 mg, Geometric Mean", "value": 5.23, "unit": "h"}, {"measurement": "Tmax", "setting": "male, 50 mg, Geometric Mean, read-out: Tmax", "value": 1.02, "unit": "h"}, {"measurement": "half-life", "setting": "male, 50 mg, Geometric Mean, read-out: t1/2 (converted)", "value": 3.65, "unit": "h"}, {"measurement": "AUC(0-inf)", "setting": "male, 50 mg, Mean (n = 7)", "value": 2490, "unit": "ng·h/mL"}, {"measurement": "AUC(0-t)", "setting": "male, 50 mg, Mean (n = 7)", "value": 2390, "unit": "ng·h/mL"}, {"measurement": "MRT inf", "setting": "male, 50 mg, Mean (n = 7)", "value": 5.25, "unit": "h"}, {"measurement": "half-life", "setting": "male, 50 mg, Mean (n = 7), read-out: t1/2 (converted)", "value": 3.68, "unit": "h"}, {"measurement": "AUC(0-inf)", "setting": "male, 50 mg, Median", "value": 2200, "unit": "ng·h/mL"}, {"measurement": "AUC(0-t)", "setting": "male, 50 mg, Median", "value": 2120, "unit": "ng·h/mL"}, {"measurement": "MRT inf", "setting": "male, 50 mg, Median", "value": 5.29, "unit": "h"}, {"measurement": "Tmax", "setting": "male, 50 mg, Median, read-out: Tmax", "value": 1, "unit": "h"}, {"measurement": "half-life", "setting": "male, 50 mg, Median, read-out: t1/2 (converted)", "value": 3.62, "unit": "h"}, {"measurement": "AUC(0-inf)", "setting": "male, 100 mg, Geometric Mean", "value": 4850, "unit": "ng·h/mL"}, {"measurement": "AUC(0-t)", "setting": "male, 100 mg, Geometric Mean", "value": 4780, "unit": "ng·h/mL"}, {"measurement": "MRT inf", "setting": "male, 100 mg, Geometric Mean", "value": 5.7, "unit": "h"}, {"measurement": "half-life", "setting": "male, 100 mg, Geometric Mean, read-out: t1/2 (converted)", "value": 4.15, "unit": "h"}, {"measurement": "AUC(0-inf)", "setting": "male, 100 mg, Mean (n = 7)", "value": 4880, "unit": "ng·h/mL"}, {"measurement": "AUC(0-t)", "setting": "male, 100 mg, Mean (n = 7)", "value": 4810, "unit": "ng·h/mL"}, {"measurement": "MRT inf", "setting": "male, 100 mg, Mean (n = 7)", "value": 5.75, "unit": "h"}, {"measurement": "half-life", "setting": "male, 100 mg, Mean (n = 7), read-out: t1/2 (converted)", "value": 4.15, "unit": "h"}, {"measurement": "AUC(0-inf)", "setting": "male, 100 mg, Median", "value": 4820, "unit": "ng·h/mL"}, {"measurement": "AUC(0-t)", "setting": "male, 100 mg, Median", "value": 4730, "unit": "ng·h/mL"}, {"measurement": "MRT inf", "setting": "male, 100 mg, Median", "value": 5.69, "unit": "h"}, {"measurement": "half-life", "setting": "male, 100 mg, Median, read-out: t1/2 (converted)", "value": 4.22, "unit": "h"}, {"measurement": "AUC(0-inf)", "setting": "male, 150 mg, Geometric Mean", "value": 8490, "unit": "ng·h/mL"}, {"measurement": "AUC(0-t)", "setting": "male, 150 mg, Geometric Mean", "value": 8360, "unit": "ng·h/mL"}, {"measurement": "MRT inf", "setting": "male, 150 mg, Geometric Mean", "value": 5.97, "unit": "h"}, {"measurement": "Tmax", "setting": "male, 150 mg, Geometric Mean, read-out: Tmax", "value": 1.63, "unit": "h"}, {"measurement": "half-life", "setting": "male, 150 mg, Geometric Mean, read-out: t1/2 (converted)", "value": 3.64, "unit": "h"}, {"measurement": "AUC(0-inf)", "setting": "male, 150 mg, Mean (n = 7)", "value": 8620, "unit": "ng·h/mL"}, {"measurement": "AUC(0-t)", "setting": "male, 150 mg, Mean (n = 7)", "value": 8510, "unit": "ng·h/mL"}, {"measurement": "MRT inf", "setting": "male, 150 mg, Mean (n = 7)", "value": 6.04, "unit": "h"}, {"measurement": "half-life", "setting": "male, 150 mg, Mean (n = 7), read-out: t1/2 (converted)", "value": 3.71, "unit": "h"}, {"measurement": "AUC(0-inf)", "setting": "male, 150 mg, Median", "value": 8010, "unit": "ng·h/mL"}, {"measurement": "AUC(0-t)", "setting": "male, 150 mg, Median", "value": 7940, "unit": "ng·h/mL"}, {"measurement": "MRT inf", "setting": "male, 150 mg, Median", "value": 5.87, "unit": "h"}, {"measurement": "half-life", "setting": "male, 150 mg, Median, read-out: t1/2 (converted)", "value": 3.68, "unit": "h"}, {"measurement": "half-life", "setting": "male, 10 to 150 mg, read-out: elimination half-life", "value": "3 to 4", "unit": "h"}, {"measurement": "Tmax", "setting": "male, 10 to 150 mg, read-out: mean Tmax", "value": "0.7 to 1.75", "unit": "h"}, {"measurement": "MRT", "setting": "male, 10 to 150 mg, read-out: mean residence time", "value": "5 to 6", "unit": "h"}]}]}
